Data as given in patent US9504702B2, “Methods of inhibition of protein fucosylation in vivo using fucose analogs” (Seattle Genetics, Inc., priority 2010, dated 2016).

Key:
[1] = tested on: circulating white blood cells and neutrophils; lymph nodes; test: Leukocytosis and lymph node cellularity following oral dosing; assay type: in vivo, Female Balb/c mice
Procedure: The effects of a fucose analog on leukocytosis and E-selectin binding were eamined in mice. Female Balb/c mice were given oral 2-fluorofucose (SGD-2083) in the drinking water or left untreated. Mice were bled prior to dosing and then weekly for three weeks to assess circulating cell numbers and their ability to bind E-selectin. In one study, 2-fluorofucose was formulated at 1 mM, 10 mM or 100 mM in the drinking water (n=3 per group). At day 14, mice were treated with TiterMAX® Classic adjuvant (Sigma) to stimulate polyclonal, antigen non-specific antibody production by B cells, and remained on the 2-fluorofucose-containing water through day 21. In a second study, mice were given oral 2-fluorofucose formulated at 10 mM and 100 mM in the drinking water for three weeks without any other treatments (n=6). On day 21, a pool of lymph nodes (axillary, brachial, superficial inguinal, and mesenteric) from each of three animals was assessed in addition to blood. Lymph nodes were homogenized into single cell suspensions, and total cell numbers were determined by counting on a hemcytometer, using Trypan Blue for dead cell exclusion. To determine total white cell numbers/μL blood, samples of blood from individual animals were counted on a hemacytometer, using Turk's solution (0.01% gentian violet in 3% acetic acid) to exclude red blood cells (RBCs). RBCs were eliminated from the remainder of the blood by osmotic lysis for flow cytometric analysis. Cells were incubated with anti-Gr-1-FITC antibodies (BD Biosciences) to identify neutrophils, and a recombinant E-selectin-human Fc fusion protein (R&D Systems). Cells were washed and then incubated with a PE-labeled goat anti-human IgG-Fc secondary antibody (Jackson Immunoresearch) to detect bound E-selectin. Samples were collected on a FACSCalibur flow cytometer and analyzed using CellQuest software. The percentage of Gr-1+ cells was determined and absolute number of neutrophils was calculated using the total white cell number from the hemacytometer count. In addition, flow samples were gated for Gr-1+ cells to assess E-selectin binding to neutrophils by histogram analysis. The geometric mean of the E-selectin fluorescent signal was determined from the histogram.

[2] = tested on: A20 murine lymphoma cells; test: Tumor vaccine model, killed A20 immunization and live A20 challenge; assay type: in vivo, Female Balb/c mice; conditions: 50 mM in drinking water days -14 through +21
Procedure: Female Balb/c mice were immunized by subcutaneous implantation of 1 million A20 murine lymphoma cells (killed by irradiation) on day −21 and day −7. Another group of mice were not given any immunization. On day 0, all mice were inoculated iv with 1.5 or 5 million live A20 cells. On days −14 through +21, mice were provided with 50 mM 2-fluorofucose (SGD-2083) in their drinking water or given regular drinking water. The 8 treatment groups were as follows: • 1. No immunization, 1.5 million live A20 cells, regular drinking water • 2. No immunization, 5 million live A20 cells, regular drinking water • 3. No immunization, 1.5 million live A20 cells, 50 mM SGD-2083 in drinking water • 4. No immunization, 5 million live A20 cells, 50 mM SGD-2083 in drinking water • 5. Immunized, 1.5 million live A20 cells, regular drinking water • 6. Immunized, 5 million live A20 cells, regular drinking water • 7. Immunized, 1.5 million live A20 cells, 50 mM SGD-2083 in drinking water • 8. Immunized, 5 million live A20 cells, 50 mM SGD-2083 in drinking water Results

[3] = tested on: core antibody fucosylation (endogenous antibodies); test: Antibody fucosylation in vivo following oral administration, dose study (Example 3), dot blot; parameters: species or system Female BALC/c mice
Procedure: In this study, the effects of oral administration of the fucose analog 2-fluorofucose (SGD-2083) were further examined. Female BALC/c mice were offered […] 2-fluorofucose in their drinking water for 14 days. Mice were immunized with TiterMAX Classic and offered 1, 10 and 100 mM 2-fluorofucose in their drinking water for an additional 7 days. Mice were then terminally bled and serum obtained. Endogenous antibodies were purified by passing the serum over a protein A column
The collected antibodies were evaluated for fucosylation levels by dot blot as follows. Antibodies from untreated and treated animals (0.5 μg each), as well as standards of cAC10 with 0 to 100% fucose (only study 1), were blotted onto a nitrocellulose membrane. The proteins levels were visualized with Ponceau S. The blot was probed with biotinylated AOL lectin and developed with streptavidin HRP and ECL (as described above). Gel loading (visible) and fucose signals (bioluminescence) were measured with an Alpha Innotech camera and quantitated with the machine software.

[4] = tested on: antibody core fucosylation (antibodies that did not bind to KLH, recovered from protein A column); assay type: in vivo; conditions: 100 mM in drinking water for 14 days; non-KLH antibodies; dot blot; untreated 81%
Procedure: Female BALB/c mice were immunized with Keyhole Limpet Hemocyanin (KLH) 30-60 days prior to starting this study. For the first study, mice were dosed ip with 150 mg/kg of alkynyl fucose (SGD-1887), alkynyl fucose peracetate (SGD-1890), 2-fluorofucose (SGD-2083), or 2-fluorofucose triacetate (SGD-2084) daily for 7 days or were untreated. On day 2, mice were also boosted with KLH. On the day after the last ip dose, mice were terminally bled and serum obtained. For the second study, mice were given 100 mM of 2-fluorofucose (SGD-2083) in their drinking water or given untreated water for 7 days, boosted with KLH, and continued with 100 mM 2-fluorofucose containing drinking water or untreated water for 7 more days before being terminally bled. Serum was then obtained. No mice died in either study. For both studies, serum was passed over a commercial anti-KLH affinity column to obtain KLH-specific polyclonal antibodies. […]
Dot blots: 0.5 μg each of antibodies from untreated and treated animals, as well as standards of antibody cAC10 having known amounts of core fucosylation (0 to 100% fucose), were blotted onto a nitrocellulose membrane. […] Gel loading (visible) and fucose signals (bioluminescence) were measured with an Alpha Innotech camera and quantitated with the machine software.

## C[C@H](O)[C@@H](O)[C@@H](O)[C@H](F)C=O [SGD-2083, 2-fluoro-2-deoxy fucose]
[1]; 1 mM in drinking water
  effect on circulating white blood cells and neutrophils: very little effect
[1]; 10 mM and 100 mM in drinking water
  effect on circulating white blood cells and neutrophils: increasing effect
[1]; day 21, second study, 10 mM and 100 mM in drinking water, more severe at 100 mM
  cellularity in the lymph nodes: marked decreased
[1]; oral in drinking water, dose-dependent
  circulating white blood cells and neutrophils: increase
[2]; immunized
  survival after live A20 challenge: still alive at data collection
[2]; no immunization, versus regular drinking water
  survival after live A20 challenge: survived a few days longer
[3]; 1 mM in drinking water
  antibody fucosylation levels: highest in the untreated control and 1 mM 2-fluorofucose groups
[3]; 1, 10 and 100 mM in drinking water, 21 days
  fucosylation levels of antibodies: dose-dependent decrease
[3]; intermediate concentration (10 mM) in drinking water, compared with 100 mM
  antibody fucosylation levels: nearly as depleted of fucose as the high concentration
[4]
  fucosylation levels (average, treated animals): 7%
